Reference: patent publication US11679167B2, “Ophthalmic compositions, and ocular uses thereof, of indigo carmine” (priority 2018, dated 2023)
“Also recorded” adds a separate entry of the source.

What was measured:
[1] = tested on: eye bank eyes; assay: Dye solution instilled by injection into the anterior chamber of eye bank eyes; staining and outflow seen by naked eye or operating microscope; set-up: species or system human; conditions: for Appearance (egress) of dye in the outflow vessels after injection into the anterior chamber: human eye bank eyes, Indigo Carmine 0.004, 0.04 and 0.4 wt. %
Description: After an incision is made into the anterior chamber of the eye, a small amount of aqueous humor is expressed and the dye solution is instilled by injection into the anterior chamber. The dye solution is typically left in place for 30 seconds, during which time it stains the anterior capsule of the lens. Excess dye solution is then expelled, usually using a viscoelastic device or flushed out with a balanced salt solution.
Dye solutions containing 0.004 wt. %, 0.04 wt. %, and 0.4 wt. % of Indigo Carmine (prepared by serial dilutions of a 0.4 wt. % Indigo Carmine solution provided by Micro-Tech (Nanjing) Co.) were instilled by injection into the anterior chamber of seven eye bank eyes following the dye solution instillation procedure detailed above.
Special imaging techniques were not required.

[2] = tested on: anterior capsule; conditions: cited from earlier work
[3] = tested on: ocular structures; conditions: cited from earlier work
[4] = tested on: ocular surface squamous neoplastic lesion; assay: Topical application of dye to a human eye, slit lamp view; type: in vivo
Description: FIG. 8 is a slit lamp view of a human eye wherein an ocular surface squamous neoplastic lesion is delineated after topical application of Indigo Carmine. A blue outline is seen around the perimeter of the white ocular surface squamous neoplastic lesion.

[5] = tested on: porcine eye; assay: Dye injected into the lenticular plain after Small Incision Lenticule Extraction (SMILE)
Description: FIG. 9A is an operating microscope view of a porcine eye upon which a Small Incision Lenticule Extraction procedure (SMILE) has been carried out. From this view, circular horizontal plains have been cut in the corneal stroma, a superficial smaller diameter cut and a deeper cut of larger diameter. The cuts join in the corneal periphery, thereby creating a lenticule. The arrows show the edge of these cuts.
FIG. 9B is an operating microscope view of a porcine eye upon which a Small Incision Lenticule Extraction procedure (SMILE) has been carried out. Indigo Carmine has been injected into the lenticular plain.

[6] = sodium salt; cited from earlier work
[7] = cited from earlier work
[8] = anterior chamber perfused or injected with dye solution, sodium salt

## Brilliant Blue
[1]
  Appearance (egress) of dye in the outflow vessels after injection into the anterior chamber: the dye appears to remain within the eye

## Cc1cc(-c2ccc(/N=N/c3c(S(=O)(=O)O)cc4cc(S(=O)(=O)O)cc(N)c4c3O)c(C)c2)ccc1/N=N/c1c(S(=O)(=O)O)cc2cc(S(=O)(=O)O)cc(N)c2c1O [Trypan Blue]
[1]
  Appearance (egress) of dye in the outflow vessels after injection into the anterior chamber: the dye appears to remain within the eye
[2]
  Lowest concentration at which staining of the anterior capsule occurs: ≥ 0.0125 wt. %
[3]
  Identifying and visualizing anterior lens capsule and trabecular meshwork: effective
  Identifying or visualizing the canal of Schlemm: not effective

## CCN(CC)c1ccc(C(=C2C=CC(=[N+](CC)CC)C=C2)c2cc(O)c(S(=O)(=O)O)cc2S(=O)(=O)O)cc1 [Patent Blue]
[1]
  Appearance (egress) of dye in the outflow vessels after injection into the anterior chamber: the dye appears to remain within the eye

## O=C1C(=C2Nc3ccc(S(=O)(=O)[O-])cc3C2=O)Nc2ccc(S(=O)(=O)[O-])cc21.[Na+].[Na+] [Indigo Carmine, 5,5′-indigodisulfonic acid sodium salt]
[1]
  Diffusion of dye through tissues: generally does not diffuse through tissues
[1]; [8]
  Staining of the canal of Schlemm: stains heavily; also recorded: heavy staining of Schlemm's canal
  Staining of the trabecular meshwork: stains the trabecular meshwork lightly; also recorded: more lightly stained
[1]; at each concentration: 0.004 wt. %, 0.04 wt. %, 0.4 wt. %
  Visibility of dye in the collector channels on the surface of the eye after passing through the drainage system: visible to the naked eye of the surgeon
[1]; sodium salt
  Appearance (egress) of dye in the outflow vessels after injection into the anterior chamber: appeared in the fine vessels in the conjunctiva adjacent to the limbus, the aqueous veins and the conjunctival venous system; also recorded: some of the dye exiting the eye through the aqueous veins
[1]; injection via small corneal incision, capsulorhexis procedure, sodium salt
  Staining of the anterior capsule of the lens: stain the anterior capsule of the crystalline lens; also recorded: lightly stained
[1]; no special imaging techniques, standard operating microscope
  Visibility of dye on the surface of the instilled eye: easily visible to the naked eye of the surgeon
[1]; once the conjunctiva was reflected away, sodium salt
  Dye in the deep scleral plexus: observed in the deep scleral plexus; also recorded: deeper vessels are seen
[4]
  Delineation of ocular surface squamous neoplastic lesion: delineated
[5]
  Identification of the lenticule edge: white arrows indicate the complete circular edge of the lenticule
[6]
  Protein binding: low protein binding; also recorded: relatively reduced protein binding
[7]
  Solubility in water: soluble in water

## CC1(C)C(/C=C/C=C/C=C/C=C2\N(CCCCS(=O)(=O)O)c3ccc4ccccc4c3C2(C)C)=[N+](CCCCS(=O)(=O)[O-])c2ccc3ccccc3c21 [Indocyanine Green]
[1]
  Appearance (egress) of dye in the outflow vessels after injection into the anterior chamber: the dye appears to remain within the eye
